Data from paper PMC9856672, “SGC-CAMKK2-1: A Chemical Probe for CAMKK2” (Cells, 2023).

Experiments:
FER = biological target: T1, FER (Homo sapiens, UniProt P16591); experiment: KINOMEscan 1 μM, FER; assay type: binding; settings: 1000 nM; Entrez FER; read-out: Percent Control
T1 construct: purchased Eurofins DiscoverX KINOMEscan
From the text: (§1) Supplement cells-12-00287-s001.zip/File S2. KinomeScan data for the CAMKK2 probe and negative control.xlsx, sheet "SGC-CAMKK2-1" | column: Percent Control

PHKG1 = biological target: T2, PHKG1 (Homo sapiens, UniProt Q16816); experiment: KINOMEscan 1 μM, PHKG1; assay type: binding; settings: 1000 nM; Entrez PHKG1; read-out: Percent Control
T2 construct: purchased Eurofins DiscoverX KINOMEscan
From the text: as §1

p38-gamma = biological target: T3, p38-gamma (Homo sapiens, UniProt P53778); experiment: KINOMEscan 1 μM, p38-gamma; assay type: binding; settings: 1000 nM; Entrez MAPK12; read-out: Percent Control
T3 construct: purchased Eurofins DiscoverX KINOMEscan
From the text: as §1

ROS1 = biological target: T4, ROS1 (Homo sapiens, UniProt P08922); experiment: KINOMEscan 1 μM, ROS1; assay type: binding; settings: 1000 nM; Entrez ROS1; read-out: Percent Control
T4 construct: purchased Eurofins DiscoverX KINOMEscan
From the text: as §1

CSF1R-autoinhibited = biological target: T5, CSF1R-autoinhibited (Homo sapiens, UniProt P07333); experiment: KINOMEscan 1 μM, CSF1R-autoinhibited; assay type: binding; settings: 1000 nM; Entrez CSF1R; read-out: Percent Control
T5 construct: purchased Eurofins DiscoverX KINOMEscan
From the text: as §1

ABL2 = biological target: T6, ABL2 (Homo sapiens, UniProt P42684); experiment: KINOMEscan 1 μM, ABL2; assay type: binding; settings: 1000 nM; Entrez ABL2; read-out: Percent Control
T6 construct: purchased Eurofins DiscoverX KINOMEscan
From the text: as §1

TLK1 = biological target: T7, TLK1 (Homo sapiens, UniProt Q9UKI8); experiment: KINOMEscan 1 μM, TLK1; assay type: binding; settings: 1000 nM; Entrez TLK1; read-out: Percent Control
T7 construct: purchased Eurofins DiscoverX KINOMEscan
From the text: as §1

TBK1 = biological target: T8, TBK1 (Homo sapiens, UniProt Q9UHD2); experiment: KINOMEscan 1 μM, TBK1; assay type: binding; settings: 1000 nM; Entrez TBK1; read-out: Percent Control
T8 construct: purchased Eurofins DiscoverX KINOMEscan
From the text: as §1

DMPK2 = biological target: T9, DMPK2 (Homo sapiens, UniProt Q6DT37); experiment: KINOMEscan 1 μM, DMPK2; assay type: binding; settings: 1000 nM; Entrez CDC42BPG; read-out: Percent Control
T9 construct: purchased Eurofins DiscoverX KINOMEscan
From the text: as §1

[1] = biological target: T10, ABL1(F317L)-phosphorylated (Homo sapiens, UniProt P00519, F317L); experiment: KINOMEscan 1 μM, ABL1(F317L)-phosphorylated; assay type: binding; settings: 1000 nM; Entrez ABL1; read-out: Percent Control
T10 construct: purchased Eurofins DiscoverX KINOMEscan
From the text: as §1

CLK1 = biological target: T11, CLK1 (Homo sapiens, UniProt P49759); experiment: KINOMEscan 1 μM, CLK1; assay type: binding; settings: 1000 nM; Entrez CLK1; read-out: Percent Control
T11 construct: purchased Eurofins DiscoverX KINOMEscan
From the text: as §1

FLT3(ITD) = experiment: KINOMEscan 1 μM, FLT3(ITD); assay type: binding, human; settings: 1000 nM; Entrez FLT3
From the text: as §1

HIPK4 = biological target: T12, HIPK4 (Homo sapiens, UniProt Q8NE63); experiment: KINOMEscan 1 μM, HIPK4; assay type: binding; settings: 1000 nM; Entrez HIPK4; read-out: Percent Control
T12 construct: purchased Eurofins DiscoverX KINOMEscan
From the text: as §1

HPK1 = biological target: T13, HPK1 (Homo sapiens, UniProt Q92918); experiment: KINOMEscan 1 μM, HPK1; assay type: binding; settings: 1000 nM; Entrez MAP4K1; read-out: Percent Control
T13 construct: purchased Eurofins DiscoverX KINOMEscan
From the text: as §1

LTK = biological target: T14, LTK (Homo sapiens, UniProt P29376); experiment: KINOMEscan 1 μM, LTK; assay type: binding; settings: 1000 nM; Entrez LTK; read-out: Percent Control
T14 construct: purchased Eurofins DiscoverX KINOMEscan
From the text: as §1

MINK = biological target: T15, MINK (Homo sapiens, UniProt Q8N4C8); experiment: KINOMEscan 1 μM, MINK; assay type: binding; settings: 1000 nM; Entrez MINK1; read-out: Percent Control
T15 construct: purchased Eurofins DiscoverX KINOMEscan
From the text: as §1

NEK9 = biological target: T16, NEK9 (Homo sapiens, UniProt Q8TD19); experiment: KINOMEscan 1 μM, NEK9; assay type: binding; settings: 1000 nM; Entrez NEK9; read-out: Percent Control
T16 construct: purchased Eurofins DiscoverX KINOMEscan
From the text: as §1

PIK3CA(E542K) = biological target: T17, PIK3CA(E542K) (Homo sapiens, UniProt P42336, E542K); experiment: DiscoverX KINOMEscan binding assay at 1 μM, PIK3CA(E542K); settings: Compound Concentration 1000 nM, read-out: Percent Control
T17 construct: purchased Eurofins DiscoverX KINOMEscan
From the text: as §1

PIK3CA(Q546K) = biological target: T18, PIK3CA(Q546K) (Homo sapiens, UniProt P42336, Q546K); experiment: DiscoverX KINOMEscan binding assay at 1 μM, PIK3CA(Q546K); settings: Compound Concentration 1000 nM, read-out: Percent Control
T18 construct: purchased Eurofins DiscoverX KINOMEscan
From the text: as §1

PRKD2 = biological target: T19, PRKD2 (Homo sapiens, UniProt Q9BZL6); experiment: DiscoverX KINOMEscan binding assay at 1 μM, PRKD2; settings: Compound Concentration 1000 nM, read-out: Percent Control
T19 construct: purchased Eurofins DiscoverX KINOMEscan
From the text: as §1

PRP4 = biological target: T20, PRP4 (Homo sapiens, UniProt Q13523); experiment: DiscoverX KINOMEscan binding assay at 1 μM, PRP4; settings: PRP4 (PRPF4B); Compound Concentration 1000 nM; read-out: Percent Control
T20 construct: purchased Eurofins DiscoverX KINOMEscan
From the text: as §1

[2] = biological target: T21, RPS6KA4(Kin.Dom.2-C-terminal) (Homo sapiens, UniProt O75676); experiment: DiscoverX KINOMEscan binding assay at 1 μM, RPS6KA4(Kin.Dom.2-C-terminal); settings: Compound Concentration 1000 nM, read-out: Percent Control
T21 construct: RPS6KA4(Kin.Dom.2-C-terminal); purchased Eurofins DiscoverX KINOMEscan
From the text: as §1

TTK = biological target: T22, TTK (Homo sapiens, UniProt P33981); experiment: DiscoverX KINOMEscan binding assay at 1 μM, TTK; settings: Compound Concentration 1000 nM, read-out: Percent Control
T22 construct: purchased Eurofins DiscoverX KINOMEscan
From the text: as §1

STK16 = biological target: T23, STK16 (Homo sapiens, UniProt O75716); experiment: KINOMEscan at 1 μM, STK16; assay type: binding; settings: 1000 nM, read-out: Percent Control
T23 construct: purchased Eurofins DiscoverX KINOMEscan
From the text: (§2) Supplement cells-12-00287-s001.zip/File S2. KinomeScan data for the CAMKK2 probe and negative control.xlsx, sheet "SGC-CAMKK2-1N" | column: Percent Control

CDC2L5 = biological target: T24, CDC2L5 (Homo sapiens, UniProt Q14004); experiment: KINOMEscan at 1 μM, CDC2L5; assay type: binding; settings: 1000 nM, read-out: Percent Control
T24 construct: purchased Eurofins DiscoverX KINOMEscan
From the text: as §2

[3] = biological target: T25, ABL1(Q252H)-nonphosphorylated (Homo sapiens, UniProt P00519, Q252H); experiment: KINOMEscan at 1 μM, ABL1(Q252H)-nonphosphorylated; assay type: binding; settings: 1000 nM, read-out: Percent Control
T25 construct: purchased Eurofins DiscoverX KINOMEscan
From the text: as §2

NDR2 = biological target: T26, NDR2 (Homo sapiens, UniProt Q9Y2H1); experiment: KINOMEscan at 1 μM, NDR2; assay type: binding; settings: 1000 nM, read-out: Percent Control
T26 construct: purchased Eurofins DiscoverX KINOMEscan
From the text: as §2

FLT3(ITD,F691L) = experiment: KINOMEscan at 1 μM, FLT3(ITD,F691L); assay type: binding, human; settings: 1000 nM
From the text: as §2

EGFR(T790M) = biological target: T27, EGFR(T790M) (Homo sapiens, UniProt P00533, T790M); experiment: KINOMEscan at 1 μM, EGFR(T790M); assay type: binding; settings: 1000 nM, read-out: Percent Control
T27 construct: purchased Eurofins DiscoverX KINOMEscan
From the text: as §2

MAP4K5 = biological target: T28, MAP4K5 (Homo sapiens, UniProt Q9Y4K4); experiment: KINOMEscan at 1 μM, MAP4K5; assay type: binding; settings: 1000 nM, read-out: Percent Control
T28 construct: purchased Eurofins DiscoverX KINOMEscan
From the text: as §2

FRK = biological target: T29, FRK (Homo sapiens, UniProt P42685); experiment: KINOMEscan binding assay at 1 μM, FRK; settings: Compound Concentration 1000 nM; read-out: Percent Control
T29 construct: purchased Eurofins DiscoverX KINOMEscan
From the text: as §2

TYRO3 = biological target: T30, TYRO3 (Homo sapiens, UniProt Q06418); experiment: KINOMEscan binding assay at 1 μM, TYRO3; settings: Compound Concentration 1000 nM; read-out: Percent Control
T30 construct: purchased Eurofins DiscoverX KINOMEscan
From the text: as §2

T8 sequence (Q9UHD2 whole entry): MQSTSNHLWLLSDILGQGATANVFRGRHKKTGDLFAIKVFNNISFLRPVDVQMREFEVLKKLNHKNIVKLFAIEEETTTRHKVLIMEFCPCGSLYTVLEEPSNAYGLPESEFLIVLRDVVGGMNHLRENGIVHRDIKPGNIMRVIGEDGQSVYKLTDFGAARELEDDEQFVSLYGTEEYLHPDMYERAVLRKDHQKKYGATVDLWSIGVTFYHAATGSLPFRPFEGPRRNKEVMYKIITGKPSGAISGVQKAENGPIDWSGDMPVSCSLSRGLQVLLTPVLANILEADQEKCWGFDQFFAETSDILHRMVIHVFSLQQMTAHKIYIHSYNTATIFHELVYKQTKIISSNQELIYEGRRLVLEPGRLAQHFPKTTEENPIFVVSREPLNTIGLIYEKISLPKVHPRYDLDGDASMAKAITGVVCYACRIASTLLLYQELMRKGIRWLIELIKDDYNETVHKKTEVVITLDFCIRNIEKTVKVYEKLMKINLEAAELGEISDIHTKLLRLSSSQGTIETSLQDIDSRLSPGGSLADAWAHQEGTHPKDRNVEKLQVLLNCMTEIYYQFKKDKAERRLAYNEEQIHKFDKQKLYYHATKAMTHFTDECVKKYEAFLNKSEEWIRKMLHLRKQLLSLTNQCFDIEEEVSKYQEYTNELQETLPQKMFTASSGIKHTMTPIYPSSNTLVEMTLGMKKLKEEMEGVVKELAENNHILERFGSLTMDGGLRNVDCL
T3 sequence (P53778 whole entry): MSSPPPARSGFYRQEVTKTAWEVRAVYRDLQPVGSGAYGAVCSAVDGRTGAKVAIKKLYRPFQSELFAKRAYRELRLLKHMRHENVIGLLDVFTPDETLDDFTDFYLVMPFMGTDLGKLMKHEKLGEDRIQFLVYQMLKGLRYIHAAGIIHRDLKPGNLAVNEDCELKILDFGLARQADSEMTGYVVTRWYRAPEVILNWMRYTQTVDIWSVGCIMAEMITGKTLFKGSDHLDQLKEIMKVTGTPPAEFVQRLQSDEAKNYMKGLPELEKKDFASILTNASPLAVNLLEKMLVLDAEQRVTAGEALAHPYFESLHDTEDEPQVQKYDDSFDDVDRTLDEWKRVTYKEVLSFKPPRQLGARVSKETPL
T2 sequence (Q16816 whole entry): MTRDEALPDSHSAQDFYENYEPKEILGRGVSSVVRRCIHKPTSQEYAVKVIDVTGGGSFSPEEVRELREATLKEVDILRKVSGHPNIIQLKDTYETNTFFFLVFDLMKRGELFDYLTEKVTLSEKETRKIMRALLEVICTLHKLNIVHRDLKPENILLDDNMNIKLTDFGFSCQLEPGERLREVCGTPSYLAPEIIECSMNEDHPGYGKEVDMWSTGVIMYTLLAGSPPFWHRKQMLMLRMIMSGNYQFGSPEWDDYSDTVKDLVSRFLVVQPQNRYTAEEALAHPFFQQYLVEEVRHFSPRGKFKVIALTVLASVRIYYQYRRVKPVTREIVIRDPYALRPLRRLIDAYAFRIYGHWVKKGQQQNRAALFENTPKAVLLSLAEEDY
T26 sequence (Q9Y2H1 whole entry): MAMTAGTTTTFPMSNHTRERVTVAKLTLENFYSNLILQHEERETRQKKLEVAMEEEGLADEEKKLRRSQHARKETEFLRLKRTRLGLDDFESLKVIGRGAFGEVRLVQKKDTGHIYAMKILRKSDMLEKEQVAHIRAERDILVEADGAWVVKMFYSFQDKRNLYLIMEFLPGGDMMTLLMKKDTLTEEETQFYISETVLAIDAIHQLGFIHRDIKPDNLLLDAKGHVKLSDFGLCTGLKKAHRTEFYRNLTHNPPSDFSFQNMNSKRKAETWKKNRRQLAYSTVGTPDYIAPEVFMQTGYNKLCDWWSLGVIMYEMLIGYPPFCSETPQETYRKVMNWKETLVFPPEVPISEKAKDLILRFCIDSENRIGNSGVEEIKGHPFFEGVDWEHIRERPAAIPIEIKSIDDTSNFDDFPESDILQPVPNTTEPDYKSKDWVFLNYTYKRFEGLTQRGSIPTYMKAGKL
T9 sequence (Q6DT37 whole entry): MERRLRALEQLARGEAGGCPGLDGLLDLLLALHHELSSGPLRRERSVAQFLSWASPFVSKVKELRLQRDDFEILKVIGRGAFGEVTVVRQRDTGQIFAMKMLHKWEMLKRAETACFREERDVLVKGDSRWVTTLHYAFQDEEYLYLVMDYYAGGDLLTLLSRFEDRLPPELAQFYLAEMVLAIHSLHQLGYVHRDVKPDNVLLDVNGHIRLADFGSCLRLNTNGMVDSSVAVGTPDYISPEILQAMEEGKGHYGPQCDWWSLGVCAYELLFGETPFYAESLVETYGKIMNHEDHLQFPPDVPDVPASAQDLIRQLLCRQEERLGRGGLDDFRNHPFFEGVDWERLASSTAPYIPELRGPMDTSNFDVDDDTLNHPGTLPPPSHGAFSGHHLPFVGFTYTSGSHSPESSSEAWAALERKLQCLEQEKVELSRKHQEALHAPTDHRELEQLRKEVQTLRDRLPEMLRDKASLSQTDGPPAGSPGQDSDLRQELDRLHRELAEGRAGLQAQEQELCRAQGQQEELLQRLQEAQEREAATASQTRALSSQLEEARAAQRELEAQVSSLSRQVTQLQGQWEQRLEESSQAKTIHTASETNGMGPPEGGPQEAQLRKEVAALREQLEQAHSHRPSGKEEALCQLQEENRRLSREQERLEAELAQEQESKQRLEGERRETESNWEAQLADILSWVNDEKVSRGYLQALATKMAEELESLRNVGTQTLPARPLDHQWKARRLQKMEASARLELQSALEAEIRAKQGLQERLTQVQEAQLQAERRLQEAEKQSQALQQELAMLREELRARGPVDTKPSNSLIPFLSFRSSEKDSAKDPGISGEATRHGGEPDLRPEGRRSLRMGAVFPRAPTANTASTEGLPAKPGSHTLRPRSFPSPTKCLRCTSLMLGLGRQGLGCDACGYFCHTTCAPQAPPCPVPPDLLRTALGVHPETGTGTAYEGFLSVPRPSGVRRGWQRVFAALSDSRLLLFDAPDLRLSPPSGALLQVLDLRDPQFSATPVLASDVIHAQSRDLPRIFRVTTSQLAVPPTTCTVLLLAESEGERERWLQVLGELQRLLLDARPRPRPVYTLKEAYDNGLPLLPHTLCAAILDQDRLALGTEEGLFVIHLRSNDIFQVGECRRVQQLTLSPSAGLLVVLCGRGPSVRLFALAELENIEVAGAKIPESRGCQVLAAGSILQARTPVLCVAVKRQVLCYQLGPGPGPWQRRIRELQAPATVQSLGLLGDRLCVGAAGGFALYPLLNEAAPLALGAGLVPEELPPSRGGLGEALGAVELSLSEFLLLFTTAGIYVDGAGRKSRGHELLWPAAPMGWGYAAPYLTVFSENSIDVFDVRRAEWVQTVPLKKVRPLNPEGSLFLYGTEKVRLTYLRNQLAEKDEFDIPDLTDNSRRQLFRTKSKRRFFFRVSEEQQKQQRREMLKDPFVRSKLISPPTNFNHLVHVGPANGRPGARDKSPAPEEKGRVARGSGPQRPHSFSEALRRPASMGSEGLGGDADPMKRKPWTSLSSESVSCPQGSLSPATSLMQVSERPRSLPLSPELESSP
T30 sequence (Q06418 41-890): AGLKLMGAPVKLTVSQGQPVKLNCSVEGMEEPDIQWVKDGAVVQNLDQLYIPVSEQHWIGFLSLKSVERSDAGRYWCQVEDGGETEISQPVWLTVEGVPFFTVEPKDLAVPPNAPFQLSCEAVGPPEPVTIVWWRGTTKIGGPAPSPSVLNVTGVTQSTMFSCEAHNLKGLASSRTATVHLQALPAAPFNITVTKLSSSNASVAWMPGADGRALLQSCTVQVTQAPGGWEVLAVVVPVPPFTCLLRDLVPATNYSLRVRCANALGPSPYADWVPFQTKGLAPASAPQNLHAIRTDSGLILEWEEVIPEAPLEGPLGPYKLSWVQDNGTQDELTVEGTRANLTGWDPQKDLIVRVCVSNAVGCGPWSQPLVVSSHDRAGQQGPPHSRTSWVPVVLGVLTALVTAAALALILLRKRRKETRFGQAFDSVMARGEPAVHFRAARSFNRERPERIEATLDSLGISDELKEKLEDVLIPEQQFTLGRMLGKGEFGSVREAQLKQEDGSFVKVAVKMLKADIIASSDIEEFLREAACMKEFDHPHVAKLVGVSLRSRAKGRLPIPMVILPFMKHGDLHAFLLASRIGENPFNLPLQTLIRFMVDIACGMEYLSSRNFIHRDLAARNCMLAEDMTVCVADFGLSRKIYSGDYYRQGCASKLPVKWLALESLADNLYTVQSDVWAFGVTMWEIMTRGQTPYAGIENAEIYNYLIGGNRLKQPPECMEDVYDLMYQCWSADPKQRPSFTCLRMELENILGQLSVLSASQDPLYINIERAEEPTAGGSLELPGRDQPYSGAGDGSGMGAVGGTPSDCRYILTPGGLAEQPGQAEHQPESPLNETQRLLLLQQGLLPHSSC
T12 sequence (Q8NE63 whole entry): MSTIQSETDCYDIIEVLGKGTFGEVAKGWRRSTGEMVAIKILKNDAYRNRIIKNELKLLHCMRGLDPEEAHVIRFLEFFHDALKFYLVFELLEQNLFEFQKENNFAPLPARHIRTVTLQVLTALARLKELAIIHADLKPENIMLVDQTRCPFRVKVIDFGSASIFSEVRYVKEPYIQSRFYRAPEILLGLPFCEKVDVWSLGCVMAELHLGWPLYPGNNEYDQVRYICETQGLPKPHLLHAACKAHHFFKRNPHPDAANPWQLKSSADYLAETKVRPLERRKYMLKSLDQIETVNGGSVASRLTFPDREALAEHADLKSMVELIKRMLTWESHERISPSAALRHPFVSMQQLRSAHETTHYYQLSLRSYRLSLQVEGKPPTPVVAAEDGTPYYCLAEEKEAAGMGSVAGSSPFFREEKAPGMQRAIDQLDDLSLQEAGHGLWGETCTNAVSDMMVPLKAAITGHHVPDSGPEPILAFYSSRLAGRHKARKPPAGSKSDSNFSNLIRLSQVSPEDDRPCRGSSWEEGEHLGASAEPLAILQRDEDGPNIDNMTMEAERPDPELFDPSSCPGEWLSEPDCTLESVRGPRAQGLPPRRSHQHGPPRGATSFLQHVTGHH

For `Cc1cccc(-c2cnc3occ(-c4ccc(C(=O)O)c(C5CCCC5)c4)c3c2)c1` [SGC-CAMKK2-1 (YL-36)], the remaining binding at 1 µM (FER) was 77%, the remaining binding at 1 µM (PHKG1) was 80% and the remaining binding at 1 µM (p38-gamma) was 82%. The remaining binding at 1 µM (ROS1) was 84%, the remaining binding at 1 µM (CSF1R-autoinhibited) was 85% and the remaining binding at 1 µM (ABL2) was 92%. The remaining binding at 1 µM (TLK1) was 92%, the remaining binding at 1 µM (TBK1) was 94% and the remaining binding at 1 µM (DMPK2) was 97%. The remaining binding at 1 µM [1] was 100%, the remaining binding at 1 µM (CLK1) was 100% and the “Percent Control” value (FLT3(ITD)) was 100%. For the same compound, the remaining binding at 1 µM (HIPK4) was 100%, the remaining binding at 1 µM (HPK1) was 100% and the remaining binding at 1 µM (LTK) was 100%. The remaining binding at 1 µM (MINK) was 100%, the remaining binding at 1 µM (NEK9) was 100% and the remaining binding at 1 µM (PIK3CA(E542K)) was 100%. For the same compound, the remaining binding at 1 µM (PIK3CA(Q546K)) was 100%, the remaining binding at 1 µM (PRKD2) was 100% and the remaining binding at 1 µM (PRP4) was 100%. It also gave a remaining binding at 1 µM [2] of 100% and a remaining binding at 1 µM (TTK) of 100%.

`O=C(O)c1ccc(-c2coc3ncc(-c4ccccc4)cc23)cc1Cl` [SGC-CAMKK2-1N (UNC-YL-83)] showed a remaining binding at 1 µM (STK16) of 42%, a remaining binding at 1 µM (CDC2L5) of 57% and a remaining binding at 1 µM [3] of 59%. For the same compound, the remaining binding at 1 µM (NDR2) was 76%, the “Percent Control” value (FLT3(ITD,F691L)) was 81 and the remaining binding at 1 µM (EGFR(T790M)) was 85%. The remaining binding at 1 µM (MAP4K5) was 89%, the remaining binding at 1 µM (FRK) was 100% and the remaining binding at 1 µM (TYRO3) was 100%.
